Experiments:
[1] = biological target: T1, human CYP11B2 enzyme (Homo sapiens, UniProt P19099); assay: Enzyme inhibition activity assay in G402 cells stably expressing human CYP11B2 (aldosterone production from 11-DOC, LC/MS); format: cell-based; settings: 1 µM 11-DOC, 16 hours, aldosterone detected
T1 construct: the ORF of human CYP11B1 or CYP11B2 were transfected into G402 cells; expressed in transfected cells
T1 sequence (P19099 25-503): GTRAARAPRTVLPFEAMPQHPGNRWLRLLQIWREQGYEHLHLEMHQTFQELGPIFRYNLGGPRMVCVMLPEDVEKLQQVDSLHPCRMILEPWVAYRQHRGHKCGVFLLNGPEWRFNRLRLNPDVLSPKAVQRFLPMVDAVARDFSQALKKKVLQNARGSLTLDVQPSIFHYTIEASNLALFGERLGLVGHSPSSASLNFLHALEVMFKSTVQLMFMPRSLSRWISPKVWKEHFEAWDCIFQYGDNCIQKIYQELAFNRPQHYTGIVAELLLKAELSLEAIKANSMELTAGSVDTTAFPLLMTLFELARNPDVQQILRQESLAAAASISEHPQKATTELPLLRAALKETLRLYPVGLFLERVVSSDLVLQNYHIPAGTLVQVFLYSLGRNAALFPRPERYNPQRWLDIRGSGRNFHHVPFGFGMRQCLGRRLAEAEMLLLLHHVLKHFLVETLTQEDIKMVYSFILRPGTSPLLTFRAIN
Description: (§1) G402 cells (ATCC, CRL 1440) are epithelioid cells isolated from the kidney of a patient with renal failure and are a type of leiomyoblastoma. For the screening of highly specific CYP11B2 inhibitors, we specifically used G402 cell lines stably expressing human CYP11B2 enzyme or human CYP11B1 enzyme for experimental development.
(§2) Construction of Stably Transfected Cell Lines: Expression plasmids containing suitable promoters, suitable drug resistance markers, and the ORF of human CYP11B1 or CYP11B2 were transfected into G402 cells using standard techniques. The cells were then screened using the specific puromycin resistance marker. Monoclonal cells stably expressing human CYP11B2 were selected for expansion, and 11-deoxycorticosterone (11-DOC) was used as the specific substrate to evaluate enzyme activity based on aldosterone production. Monoclonal cells stably expressing human CYP11B1 were selected for expansion, and 11-deoxycortisol (11-DC) was used as the specific substrate, with cortisol production as the detection target for specific enzyme activity evaluation. The G402 cell lines stably expressing CYP11B1/CYP11B2 were cultured at 37 °C, 5% CO2, 95% air in complete medium (McCoy's 5A + 10% FBS + 1% PS + 0.5 µg/mL puromycin).
(§3) Enzyme Inhibition Activity Assay: CYP11B1 G402/CYP11B2 G402 cells were spread out flatly in cell culture plates. After 24 hours, the medium was changed to an enzyme testing system (DMEM/F12 + 2.5% charcoal-stripped FCS). Small molecule inhibitors at various concentrations were added. After 1 hour, appropriate concentrations of specific substrates (1 µM 11-DOC / 1 µM 11-DC) were added and co-incubated with the cells for 16 hours. Cells were then collected, and specific products were detected using LC/MS methods with an AB SCIEX TRIPLE QUAD 5500+, CTO-40S instrument (CYP11B2 enzyme detecting aldosterone; CYP11B1 enzyme detecting cortisol).
(§4) The IC50 values of the compounds were determined based on the G402 testing system. The dose-dependent inhibition of enzyme activity was calculated by plotting the added inhibitor concentration (x-axis) against the percentage of product inhibitory activity relative to the control group (y-axis) based on product formation at various compound concentrations. The following data were then fitted using the least squares method with XLfit 5.5.0 for a four-parameter logistic curve fit: [formula] • Y-axis: Percentage of product inhibitory activity relative to the control group; • logIC50: IC50 was determined using XLFit.
(§5) The maximum enzyme activity corresponds to the amount of control product steroid/aldosterone in the absence of inhibitor, set as 100%. The minimum enzyme activity corresponds to the amount of reference control product steroid/aldosterone in the presence of inhibitor. Table 3 Inhibitory Activity of the Compounds of the Present Disclosure on CYP11B2 and CYP11B1

[2] = Pharmacokinetic determination in mice after gavage administration (P.O.); format: in vivo; settings: male, CD-1, mouse, po, 10 mg/kg, plasma
Method: Mice and rats were used as test animals to study the pharmacokinetic behavior of the compounds of the present disclosure in plasma following gavage administration (P.O.). Plasma samples were collected at specific time points, compound concentrations in plasma were detected by LC-MS/MS, and pharmacokinetic parameters were calculated to evaluate the pharmacokinetics.
• Mice, CD-1, male, Zhejiang Vital River Laboratory Animal Technology Co., Ltd. • Rats, Sprague-Dawley, male, Zhejiang Vital River Laboratory Animal Technology Co., Ltd., Shanghai Jihui Experimental Animal Breeding Co., Ltd.
After administration to mice and rats, venous blood samples of 0.03 mL and 0.2 mL, respectively, were collected at 0.0833 (IV), 0.25, 0.5, 1, 2, 4, 8, and 24 hours and placed in EDTA-K2 test tubes. Plasma was separated by centrifugation at 4 °C, 4000 g for 5 minutes and stored at -80 °C.
• 1) 10 µL of plasma sample was precipitated by adding 200 µL of acetonitrile, vortex mixed, and centrifuged for 15 minutes. • 2) The processed supernatant was diluted with water and analyzed by LC/MS/MS to determine the concentration of the test compound.
Pharmacokinetic parameters were calculated using WinNonlin 8.3. The pharmacokinetic parameters for mice P.O. are shown in Table 4, and for rats P.O. in Table 5. Cmax represents the maximum plasma concentration, T1/2 represents the terminal elimination half-life, MRTInf represents the mean residence time, and AUC represents the area under the plasma concentration-time curve. Table 4 Pharmacokinetic Parameters of the Compounds of the Present Disclosure in Mice

[3] = biological target: T2, human CYP11B1 enzyme (Homo sapiens, UniProt P15538); assay: Enzyme inhibition activity assay in G402 cells stably expressing human CYP11B1 (cortisol production from 11-DC, LC/MS); format: cell-based; settings: 1 µM 11-DC, 16 hours, cortisol detected
T2 construct: the ORF of human CYP11B1 or CYP11B2 were transfected into G402 cells; expressed in transfected cells
T2 sequence (P15538 25-503): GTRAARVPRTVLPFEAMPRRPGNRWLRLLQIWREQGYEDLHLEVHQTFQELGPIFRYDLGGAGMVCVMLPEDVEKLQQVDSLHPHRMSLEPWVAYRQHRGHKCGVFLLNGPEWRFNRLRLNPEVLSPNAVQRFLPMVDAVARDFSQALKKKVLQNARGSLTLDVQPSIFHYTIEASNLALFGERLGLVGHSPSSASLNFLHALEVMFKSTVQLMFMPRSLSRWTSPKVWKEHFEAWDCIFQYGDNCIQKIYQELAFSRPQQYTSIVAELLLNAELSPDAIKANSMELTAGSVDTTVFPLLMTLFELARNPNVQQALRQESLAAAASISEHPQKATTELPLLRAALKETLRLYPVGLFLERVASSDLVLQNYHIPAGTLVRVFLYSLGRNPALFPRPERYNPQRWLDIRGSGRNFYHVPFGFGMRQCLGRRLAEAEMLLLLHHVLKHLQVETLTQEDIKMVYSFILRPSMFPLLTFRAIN
Description: as §1, §2, §3, §4, §5

Compound | IC50 [1] [nM] | Cmax [2] [µM] | MRT inf [2] [h] | half-life [2] [h] | AUC(0-t) ([2]; read-out: AUC0-24) [µM·h] | IC50 [3] [nM]
[2H]C([2H])([2H])NC(=O)N[C@@H]1CCCc2c(-c3ccc4c(c3)COC(=O)N4C)cncc21 [Compound A16] | 9.5 | 51.7 | 2.37 | 1.07 | 184 | –
COC(=O)N[C@@H]1CCOc2c(-c3ccc4c(ccc(=O)n4C)c3)cncc21 [Compound A42] | 12.9 | – | – | – | – | 1700
COC(=O)N[C@@H]1CCOc2c(-c3ccc4c(c3)COC(=O)N4C)cncc21 [Compound A43] | 6.6 | – | – | – | – | 572
COC(=O)N[C@@H]1CCCc2c(-c3cc(F)c4c(ccc(=O)n4C)c3)cncc21 [Compound A47] | 6.9 | – | – | – | – | 720
[2H]C([2H])([2H])OC(=O)N[C@@H]1CCCc2c(-c3cc(F)c4c(ccc(=O)n4C)c3)cncc21 [Compound A48] | 5.9 | – | – | – | – | 712
COC(=O)N[C@@H]1CCOc2c(-c3cc(F)c4c(ccc(=O)n4C)c3)cncc21 [Compound A49] | 14.9 | – | – | – | – | 2210
COC(=O)N[C@@H]1CCCc2c(-c3cc(Cl)c4c(ccc(=O)n4C)c3)cncc21 [Compound A51] | 4.4 | – | – | – | – | 625
[2H]C([2H])([2H])OC(=O)N[C@@H]1CCCc2c(-c3cc(Cl)c4c(ccc(=O)n4C)c3)cncc21 [Compound A52] | 5.9 | – | – | – | – | 797
COC(=O)N[C@@H]1CCOc2c(-c3cc(Cl)c4c(ccc(=O)n4C)c3)cncc21 [Compound A53] | 13.1 | – | – | – | – | 2010
[2H]C([2H])([2H])OC(=O)N[C@@H]1CCOc2c(-c3cc(Cl)c4c(ccc(=O)n4C)c3)cncc21 [Compound A54] | 13.6 | – | – | – | – | 1660
CCC(=O)N[C@@H]1CCCc2c(-c3ccc4c(ccc(=O)n4C)c3)cncc21 [Compound C04] | 19.2 | – | – | – | – | 2500
CCC(=O)N[C@@H]1CCCc2c(-c3ccc4c(c3)CNC(=O)N4C)cncc21 [Compound C06] | 31.1 | – | – | – | – | 2400
CCC(=O)N[C@@H]1CCCc2c(-c3ccc4c(c3)OCC(=O)N4C)cncc21 [Compound C09] | 31 | – | – | – | – | 3850
CCC(=O)N[C@@H]1CCCc2c(-c3ccc4c(c3)CCCC(=O)N4C)cncc21 [Compound C15] | 24.5 | – | – | – | – | 2550
CCC(=O)N[C@@H]1CCCc2c(-c3ccc4c(c3)cc(C#N)n4C)cncc21 [Compound C36] | 1.4 | – | – | – | – | 266
CCC(=O)N[C@@H]1CCCc2c(-c3cnc4c(c3)cc(C#N)n4C)cncc21 [Compound C37] | 11.4 | – | – | – | – | 1720
CCC(=O)N[C@@H]1CCCc2c(-c3cc(Cl)c4c(ccc(=O)n4C)c3)cncc21 [Compound C42] | 11.1 | – | – | – | – | 4030
COCC(=O)N[C@@H]1CCCc2c(-c3ccc4c(c3)CCC(=O)N4C)cncc21 [Compound D06] | 8.2 | – | – | – | – | 288
C[C@H](F)C(=O)N[C@@H]1CCCc2c(-c3ccc4c(c3)CCC(=O)N4C)cncc21 [Compound D07-P2] | 11.8 | – | – | – | – | 1630
[2H]C([2H])([2H])NC(=O)N[C@@H]1CCCc2c(-c3ccc4c(c3)CCC(=O)N4C)cncc21 [Compound D08] | 11 | – | – | – | – | 803
CN1CCN([C@@H]2CCCc3c(-c4ccc5c(c4)CCC(=O)N5C)cncc32)C1=O [Compound D10] | 4.7 | – | – | – | – | 275
CN(C)C(=O)N[C@@H]1CCCc2c(-c3ccc4c(c3)CCC(=O)N4C)cncc21 [Compound D11] | 7.4 | – | – | – | – | 1060
CN1C(=O)CCc2cc(-c3cncc4c3CCC[C@H]4N3CCOC3=O)ccc21 [Compound D12] | 7.3 | – | – | – | – | 362
[2H]C([2H])([2H])OC(=O)N[C@@H]1CCCc2c(-c3ccc4c(c3)CCC(=O)N4C)cncc21 [Compound D15] | 2.5 | – | – | – | – | 128
[2H]C([2H])([2H])N(C(=O)N[C@@H]1CCCc2c(-c3ccc4c(c3)CCC(=O)N4C)cncc21)C([2H])([2H])[2H] [Compound D16] | 19.5 | – | – | – | – | 1230

From patent EP4806899A1, “FUSED RING DERIVATIVE, PREPARATION METHOD THEREFOR AND USE THEREOF IN MEDICINE” (Shanghai Qilu Pharmaceutical Research and Development …, priority 2023, dated 2025)
